Earlier results, collected in patent EP0303681B1 (priority 1987, dated 1988).

## Sc1ncnc2nc[nH]c12 [6 MP, 6-mercaptopurine]
Alkaline solutions
  solubility in alkaline solutions: soluble
Hot ethanol
  solubility in hot ethanol: soluble
water
  solubility in water: insoluble
